This note sets out measurements from US7491827B2, “Aryl sulfonamides useful as inhibitors of chemokine receptor activity” (Millennium Pharmaceuticals, Inc., priority 2003, dated 2009).

The first test deals with T1, cloned human CCR8 receptor stably expressed in L1.2 cells (Homo sapiens, UniProt P51685).
T1 construct: expressed in transfected cells
T1 sequence (P51685 whole entry): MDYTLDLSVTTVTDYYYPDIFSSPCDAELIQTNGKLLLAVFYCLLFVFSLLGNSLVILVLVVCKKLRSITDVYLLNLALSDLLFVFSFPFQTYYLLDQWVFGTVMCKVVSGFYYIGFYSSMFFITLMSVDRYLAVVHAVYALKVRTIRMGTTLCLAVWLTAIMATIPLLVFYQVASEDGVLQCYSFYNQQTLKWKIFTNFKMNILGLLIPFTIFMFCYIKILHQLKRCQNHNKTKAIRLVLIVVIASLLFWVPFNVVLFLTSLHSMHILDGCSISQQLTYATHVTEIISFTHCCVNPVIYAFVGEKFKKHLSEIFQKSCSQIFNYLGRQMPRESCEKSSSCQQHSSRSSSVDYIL
The test is described as follows: whole cell binding screen: inhibition of biotinylated human I309 binding to CCR8 (FMAT 8100 HTS). As to conditions: Ki of compounds to inhibit I-309 binding to CCR8, L1.2/hCCR8 cells, biotinylated human I-309, 10 point concentration response starting at 10 μM. The source says:
This whole cell binding screen evaluates the ability of compounds to inhibit biotinlyated human I309 binding to the cloned human CCR8 receptor stably expressed in L1.2 cells. Human CCR8 gene was amplified by PCR using PFU polymerase under standard conditions from human genomic DNA purchased from Stratagene. The PCR primers used were:
The 5′ and 3′ primers contained flanking enzyme sites (Bam Hi and Not 1,respectively), which were used to subclone the gene into pcDNA3.1. […] The CCR8 vector was then transfected into L1.2 cells (murine pre-B cells) by electroporation.
Compounds were screened using the FMAT™ 8100 HTS System (purchased from Applied Biosystems).
A suspension was prepared of L1.2/hCCR8 cells at 4.0×10^5 cells/mL in a binding buffer (Buffer consisting of Hanks Balanced Salt Solution (without phenol red), 10 mM HEPES, 0.1% Fatty Acid Free BSA, 0.02% Sodium Azide).
Dilution series of 10 mM stock concentrations of the test compounds were prepared in DMSO and further diluted into binding buffer defined above) to three times the final assay concentration.
10 point concentration response curve is constructed for each compound, starting at 10 μM (final assay concentration in Binding Buffer). […] The components were mixed in wells by covering the plate with aluminum foil and rotating for 0.5 hours. […] Average fluorescence reported for each concentration was normalized to percent inhibition based on negative (no inhibitor) and positive (100 nM excess unlabeled I309 (R and D Systems)) controls.
What is called Ki is a dissociation constant, usually derived from enzyme kinetics or from competition with a known ligand. `O=C(Nc1ccc(S(=O)(=O)NCc2ccccc2)c2ccccc12)c1ccccc1` [Compound A-3, N-(4-Benzylsulfamoyl-naphthalen-1-yl)-benzamide]: the Ki is below 500 nM. On the same count and under the same terms, the figure for `COCC(=O)N1CCC(NS(=O)(=O)c2ccc(NC(=O)c3ccccc3C)c3ccccc23)CC1` [Compound C-56, N{4-[1-(2-Methoxy-acetyl)-piperidin-4-ylsulfamoyl]-naphthalen-1-yl}-2-methyl-benzamide] is below 500 nM; for `CNC(=O)N1CCC(NS(=O)(=O)c2ccc(NC(=O)c3ccccc3C)c3ccccc23)CC1` [Compound C-41, 4-[4-(2-Methyl-benzoylamino)-naphthalene-1-sulfonylamino]-piperidine-1-carboxylic acid methylamide] it is below 500 nM.

The same test, now with this note: L1.2/hCCR8 cells, biotinylated human I-309, 10 point concentration response starting at 10 μM; read-out: Ki of compounds to inhibit I-309 binding to CCR8.
In the case of `CCCC(=O)N1CCCC(NS(=O)(=O)c2ccc(NC(=O)c3ccccc3C)c3ccccc23)C1` (racemic) [Compound C-114, (±)-N-[4-(I-Butyryl-piperidin-3-ylsulfamoyl)-naphthalen-1-yl]-2-methyl-benzamide], the Ki is below 500 nM. The same measure, in the same setting: the figure for `Cc1ccccc1C(=O)Nc1ccc(S(=O)(=O)NC2CCOCC2)c2c1CCCC2` [Compound E-23, 2-Methyl-N-[4-(tetrahydro-pyran-4-ylsulfamoyl)-5,6,7,8-tetrahydro-naphthalen-1-yl]-benzamide] is below 500 nM.

`O=C(Nc1ccc(S(=O)(=O)NC2CCCC2)c2ccccc12)c1ccccc1` [Compound A-35, N-(4-Cyclopentysulfamoyl-naphthalen-1-yl)-benzamide]: the inhibitory constant (Ki) is below 500 nM. Regarding `Cc1ccccc1C(=O)Nc1ccc(S(=O)(=O)NC2[C@@H](C)CN(Cc3ccccc3)C[C@@H]2C)c2ccccc12` (racemic) [Compound A-45, (±)-(cis, trans)-N-[4-(1-Benzyl-3,5-dimethyl-piperidin-4-ylsulfamoyl)-naphthalen-1-yl]-2-methyl-benzamide], the Ki is below 30000 nM.

Consider `CCCC(=O)N1CCC(NS(=O)(=O)c2ccc(NC(=O)C3CCCN(C)C3)c3ccccc23)CC1` [Compound D-23, 1-Methyl-piperidine-3-carboxylic acid [4-(1-butyryl-piperidin-4-ylsulfamoyl)-naphthalen-1-yl]-ainde], for which the Ki was below 30000 nM. Take `CC[C@H]1CN(C(=O)[C@H](C)N)CC[C@@H]1NS(=O)(=O)c1ccc(NC(=O)c2ccccc2C)c2ccccc12` [Compound J-33, (3S, 4S)-N-{4-[1-(2-(S)-Amino-propionyl)-3-ethyl-piperidin-4-ylsulfamoyl]-naphthalen-1-yl}-2-methyl-benzamide]: the inhibitory constant (Ki) is below 500 nM. Still for that read-out and setting: the figure for `CCOC(=O)N1CCC(NS(=O)(=O)c2ccc(NC(=O)C3CCCCC3)c3ccccc23)CC1` [Compound B-12, 4-[4-(Cyclohexanecarbonyl-amino)-naphthalene-1-sulfonylamino]-piperidine-1-carboxylic acid ethyl ester] is below 500 nM; for `Cc1ccccc1C(=O)Nc1ccc(S(=O)(=O)NC2[C@@H](C)CN(C(=O)N(C)C)C[C@@H]2C)c2ccccc12` (racemic) [Compound C-65, (±)-(cisstrans)-3,5-Dimethyl-4-[4-(2-methyl-benzoylamino)-naphthalene-1-sulfonylainno]-piperidine-1-carboxylic acid dimethylamide] it is below 500 nM; for `CN1CCCC(C(=O)Nc2ccc(S(=O)(=O)NC3CCN(C(=O)OC(C)(C)C)CC3)c3ccccc23)C1` (stereo not drawn) [Compound B-23] it is below 30000 nM. Take `Cc1ccccc1C(=O)Nc1ccc(S(=O)(=O)NC2CCN(C(=O)OC(C)(C)C)C2)c2c1CCC2` (racemic) [Compound H-68, (±)-3-[7-(2-Methyl-benzoylandno)-indane-4-sulfonylamino]-pyrrolidine-1-carboxylic acid tert-butyl ester]: the Ki is below 500 nM.

For `COc1ccc(NS(=O)(=O)c2cc3c(c(NC(=O)c4ccccc4)c2)CCCC3)cc1` [Compound H-55, N-[3-(4-Methoxy-phenylsulfamoyl)-5,6,7,8-tetrahydro-naphthalen-1-yl]-benzamide], the inhibition constant (Ki) is below 30000 nM. On the same count and under the same terms, the figure for `COc1ccc(NS(=O)(=O)c2ccc(NC(=O)c3ccccc3)c3c2CCCC3)cc1` [Compound E-3, N-[4-(4-Methoxy-phenylsulfamoyl)-5,6,7,8-tetrahydro-naphthalen-1-yl]-benzamide] is below 500 nM; for `CCOC(=O)N1CCC(NS(=O)(=O)c2cccc3c(CNCc4ccc(Cl)cc4)cccc23)CC1` [Compound H-45, 4-{5-[(4-Chloro-benzylamino)-methyl]-naphthalene-1-sulfonylamino}-piperidine-1-carboxylic acid ethyl ester] it is below 500 nM; for `CCOC(=O)N1CCC(NS(=O)(=O)c2cccc3c(C(=O)Nc4cccc(C)c4)cccc23)CC1` [Compound H-41, 4-(5-m-Tolylcarbamoyl-naphthalene-1-sulfonylamino)-piperidine-1-carboxylic acid ethyl ester] it is below 30000 nM.

With `Cc1ccccc1C(=O)Nc1ccc(S(=O)(=O)N[C@H]2CCN(C(=O)C(C)(C)N)C[C@H]2C)c2ccccc12` [Compound J-8, (3R, 4S)-N-{4-[1-(2-Amino-2-methyl-propionyl)-3-methyl-piperidin-4-ylsuffamoyl]-naphthalen-1-yl}-2-methyl-benzamide], the inhibition constant (Ki) is below 500 nM. As to `CCOC(=O)N1CCC(NS(=O)(=O)c2ccc(CNCc3ccc(Cl)cc3)c3ccccc23)CC1` [Compound G-7, 4-{4-[(4-Chloro-benzylamino)-methyl]-naphthalene-1-sulfonylamino}-piperidine-1-carboxylic acid ethyl ester], the inhibition constant Ki was below 500 nM. Same read-out and setting: to `CCOC(=O)N1[C@@H]2CC[C@H]1C[C@@H](NS(=O)(=O)c1ccc(NC(=O)c3ccccc3C)c3ccccc13)C2` [Compound C-10, cis-3-[4-(2-Methyl-benzoylamino)-naphthalene-1-sulfonylamino]-8-aza-bicyclo[3.2.1]octane-8-carboxylic acid ethyl ester] belongs below 500 nM; to `CN(C)C(=O)N1CCC(NS(=O)(=O)c2ccc(C(=O)Nc3ccccc3Cl)c3ccccc23)CC1` [Compound F-23, 4-[4-(2-Chloro-phenylcarbamoyl)-naphthalene-1-sulfonylamino]-piperidine-1-carboxylic acid dimethylamide], below 500 nM. Same read-out and setting: the figure for `CCOC(=O)N1CCC(NS(=O)(=O)c2cccc3c(NC(=O)c4cc5ccccc5s4)cccc23)CC1` [Compound H-18, 4-{5-[(Benzo[b]thiophene-2-carbonyl)-amino]-naphthalene-1-suffonylamino}-piperidine-1-carboxylic acid ethyl ester] is below 500 nM; for `Cc1ccccc1C(=O)Nc1cccc2c(S(=O)(=O)NC3CCN(C(=O)N4CCOCC4)CC3)cccc12` [Compound H-11, 2-Methyl-N-{5-[1-(morpholine-4-carbonyl)-piperidin-4-ylsulfamoyl]-naphthalen-1-yl}-benzamide] it is below 500 nM. The same measure, in the same setting: to `CC(C)c1ccc(NS(=O)(=O)c2ccc(NC(=O)c3ccccc3)c3ccccc23)cc1` [Compound A-28, N-[4-(4-Isopropyl-phenylsulfamoyl)-naphthalene-1-yl]-benzamide] belongs below 500 nM; to `O=C1c2ccccc2C(=O)N1Cc1ccc(S(=O)(=O)NC2CCCCC2)c2ccccc12` [Compound G-4, 4-(1,3-Dioxo-1,3-dihydro-isoindol-2-ylmethyl)-naphthalene-1-sulfonic acid cyclohexylamide], below 30000 nM. As to `CCOC(=O)N1CCC(NS(=O)(=O)c2ccc(CNCC3CCCCC3)c3ccccc23)CC1` [Compound G-27, 4-{4-[(Cyclohexylmethyl-amino)-methyl]-naphthalene-1-sulfonylamino}-piperidine-1-carboxylic acid ethyl ester], the inhibition constant (Ki) is below 500 nM. Still for that read-out and setting: the figure for `CCCC(=O)N1CCC(NS(=O)(=O)c2ccc(C(=O)Nc3ccccc3Cl)c3ccccc23)CC1` [Compound F-22, 4-(1-Butyryl-piperidin-4-ylsulfamoyl)-naphthalene-1-carboxylic acid (2-chloro-phenyl)-amide] is below 500 nM; for `Cc1ccccc1C(=O)Nc1ccc(S(=O)(=O)NC2CCCNC2)c2c1CCCC2` (racemic) [Compound E-28, (±)-2-Methyl-N-[4-(piperidin-3-ylsulfamoyl)-5,6,7,8-tetrahydro-naphthalen-1-yl]-benzamide] it is below 500 nM.

As to `CCOC(=O)N1C[C@@H](C)[C@@H](NS(=O)(=O)c2ccc(NC(=O)c3ccccc3C)c3ccccc23)[C@@H](C)C1` [Compound C-70, (±)-(cis,cis)-3,5-Dimethyl-4-[4-(2-methyl-benzoylamino)-naphthalene-1-sulfonylamino]-piperidine-1-carboxylic acid ethyl ester], the inhibitory constant (Ki) was below 1000 nM. For `Cc1ccccc1C(=O)Nc1cc(S(=O)(=O)NC2CCN(C(=O)C(C)C)CC2)cc2c1CCCC2` [Compound H-53, N-[3-(1-Isobutyryl-piperidin-4-ylsulfamoyl)-5,6,7,8-tetrahydro-naphthalen-1-yl]-2-methyl-benzamide], the Ki is below 30000 nM.
